Measurements taken from patent publication US10381110B2, “Molecules” (University of Dundee, priority 2010, dated 2019).
pKi: −log10 of the molar value.

Key:
dopamine D1 = dopamine D1 (Homo sapiens, UniProt P21728); experiment: Primary radioligand binding assay (NIMH PDSP); conditions: primary radiobinding assay, [3H]SCH233930; also: test concentration or dose not given here
Alpha1D = target: T1, Alpha1D (Homo sapiens, UniProt P25100); experiment: Primary radioligand binding assay (NIMH PDSP); conditions: primary radiobinding assay, [3H]Prazosin
T1 sequence (P25100 1-572): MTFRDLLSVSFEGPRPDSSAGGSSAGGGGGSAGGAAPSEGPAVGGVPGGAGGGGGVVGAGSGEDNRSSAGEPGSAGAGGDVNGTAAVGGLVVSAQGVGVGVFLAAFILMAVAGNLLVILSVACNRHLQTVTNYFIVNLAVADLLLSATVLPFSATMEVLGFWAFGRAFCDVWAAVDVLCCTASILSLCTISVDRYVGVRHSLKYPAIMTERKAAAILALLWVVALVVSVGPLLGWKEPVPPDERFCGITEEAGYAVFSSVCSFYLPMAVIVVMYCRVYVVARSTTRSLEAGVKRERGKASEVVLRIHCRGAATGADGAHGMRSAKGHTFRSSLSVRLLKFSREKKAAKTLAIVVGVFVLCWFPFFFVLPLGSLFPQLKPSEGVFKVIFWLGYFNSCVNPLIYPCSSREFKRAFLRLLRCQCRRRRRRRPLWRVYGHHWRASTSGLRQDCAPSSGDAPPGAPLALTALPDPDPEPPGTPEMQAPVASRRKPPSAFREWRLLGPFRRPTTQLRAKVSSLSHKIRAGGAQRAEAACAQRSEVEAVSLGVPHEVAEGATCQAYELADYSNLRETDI

dopamine D2 [1] = target: T2, dopamine D2 (Homo sapiens, UniProt P14416); experiment: Primary radioligand binding assay (NIMH PDSP); conditions: primary radiobinding assay, [3H]N-methylspiperone
Target sequence in this assay (P14416 whole entry, species assumed): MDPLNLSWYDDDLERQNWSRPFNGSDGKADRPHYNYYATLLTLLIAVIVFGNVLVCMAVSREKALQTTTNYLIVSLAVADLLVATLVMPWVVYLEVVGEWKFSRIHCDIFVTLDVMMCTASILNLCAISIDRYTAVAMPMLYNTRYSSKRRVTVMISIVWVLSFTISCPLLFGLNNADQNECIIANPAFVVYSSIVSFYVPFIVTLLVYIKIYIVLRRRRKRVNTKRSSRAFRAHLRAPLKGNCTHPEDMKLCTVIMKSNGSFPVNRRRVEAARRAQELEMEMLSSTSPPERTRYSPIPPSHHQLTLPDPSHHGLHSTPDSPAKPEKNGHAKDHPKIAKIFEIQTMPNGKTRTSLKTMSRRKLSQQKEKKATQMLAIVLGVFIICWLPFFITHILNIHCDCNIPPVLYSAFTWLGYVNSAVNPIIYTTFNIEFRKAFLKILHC

Alpha1B = target: T3, Alpha1B (Homo sapiens, UniProt P35368); experiment: Primary radioligand binding assay (NIMH PDSP); conditions: primary radiobinding assay, [3H]Prazosin; also: test concentration or dose not given here
T3 sequence (P35368 1-520): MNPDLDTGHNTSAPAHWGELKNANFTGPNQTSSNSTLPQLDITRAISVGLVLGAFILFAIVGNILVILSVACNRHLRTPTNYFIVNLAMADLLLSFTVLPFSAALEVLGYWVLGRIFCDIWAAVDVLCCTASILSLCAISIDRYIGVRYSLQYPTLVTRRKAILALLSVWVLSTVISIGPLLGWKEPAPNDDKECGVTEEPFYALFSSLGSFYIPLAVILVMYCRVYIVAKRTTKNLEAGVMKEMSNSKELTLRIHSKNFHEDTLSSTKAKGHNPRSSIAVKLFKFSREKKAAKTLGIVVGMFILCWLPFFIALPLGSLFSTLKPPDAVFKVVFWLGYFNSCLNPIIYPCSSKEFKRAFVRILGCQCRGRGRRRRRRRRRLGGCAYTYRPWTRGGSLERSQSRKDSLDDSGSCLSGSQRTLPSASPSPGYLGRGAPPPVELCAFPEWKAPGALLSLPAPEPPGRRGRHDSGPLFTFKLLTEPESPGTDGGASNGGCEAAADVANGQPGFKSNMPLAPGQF

dopamine D5 = dopamine D5 (Homo sapiens, UniProt P21918); experiment: Primary radioligand binding assay (NIMH PDSP); conditions: primary radiobinding assay, [3H]SCH233930; also: test concentration or dose not given here
Alpha1A = target: T4, Alpha1A (Homo sapiens, UniProt P35348); experiment: Primary radioligand binding assay (NIMH PDSP); conditions: primary radiobinding assay, [3H]Prazosin; also: test concentration or dose not given here
T4 sequence (P35348 1-466): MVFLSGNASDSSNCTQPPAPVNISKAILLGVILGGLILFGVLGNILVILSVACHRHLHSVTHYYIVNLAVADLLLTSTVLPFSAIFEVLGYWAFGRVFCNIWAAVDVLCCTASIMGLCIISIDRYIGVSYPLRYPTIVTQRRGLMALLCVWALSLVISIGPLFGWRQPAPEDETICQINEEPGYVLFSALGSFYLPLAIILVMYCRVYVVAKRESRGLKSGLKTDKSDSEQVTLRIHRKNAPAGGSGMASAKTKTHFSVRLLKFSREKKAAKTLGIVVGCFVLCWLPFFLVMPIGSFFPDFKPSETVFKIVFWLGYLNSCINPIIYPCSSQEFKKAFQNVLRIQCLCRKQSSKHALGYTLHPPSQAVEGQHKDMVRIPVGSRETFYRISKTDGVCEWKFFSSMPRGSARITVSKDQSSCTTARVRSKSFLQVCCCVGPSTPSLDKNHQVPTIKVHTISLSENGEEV

5-HT2B = 5-HT2B (Homo sapiens, UniProt P41595); experiment: Secondary radioligand binding assay (Ki)
Protocol: (§1) Assay Buffer: Standard Binding Buffer (50 mM Tris-HCl, 10 mM MgCl2, 1 mM EDTA, pH 7.4)
(§2) Membrane Fraction Source: Transiently or stably transfected cell lines (e.g., HEK293, COS, CHO, NIH3T3)
(§3) Radioligand is diluted to five times the assay concentration (see Table 18) in Standard Binding Buffer. Typically, the assay concentration of radioligand is a value between one half the KD and the KD of a particular radioligand at its target. 50 μl aliquots of radioligand are dispensed into the wells of a 96-well plate containing 100 μl of Standard Binding Buffer. Then, duplicate 50 μl aliquots of the test and reference compound dilutions are added.
(§4) The 250 μl reactions are incubated at room temperature and shielded from light (to prevent photolysis of light-sensitive ligands) for 1.5 hours, then harvested by rapid filtration onto Whatman GF/B glass fiber filters pre-soaked with 0.3% polyethyleneimine using a 96-well Brandel harverster. Four rapid 500 μl washes are performed with chilled Standard Binding Buffer to reduce non-specific binding. Filters are placed in 6 ml scintillation tubes and allowed to dry overnight. The next day, 4 ml of EcoScint scintillation cocktail (National Diagnostics) are added to each tube. The tubes are capped, labeled, and counted by liquid scintillation counting. […] The filter mats are dried, then scintillant is melted onto the filters and the radioactivity retained on the filters is counted in a Microbeta scintillation counter.
(§5) Raw data (dpm) representing total radioligand binding (i.e. specific+non-specific binding) are plotted as a function of the logarithm of the molar concentration of the competitor (i.e. test or reference compound).

5HT1a = target: T5, 5HT1a (Homo sapiens, UniProt P08908); experiment: Secondary radioligand binding assay (Ki)
T5 sequence (P08908 1-422): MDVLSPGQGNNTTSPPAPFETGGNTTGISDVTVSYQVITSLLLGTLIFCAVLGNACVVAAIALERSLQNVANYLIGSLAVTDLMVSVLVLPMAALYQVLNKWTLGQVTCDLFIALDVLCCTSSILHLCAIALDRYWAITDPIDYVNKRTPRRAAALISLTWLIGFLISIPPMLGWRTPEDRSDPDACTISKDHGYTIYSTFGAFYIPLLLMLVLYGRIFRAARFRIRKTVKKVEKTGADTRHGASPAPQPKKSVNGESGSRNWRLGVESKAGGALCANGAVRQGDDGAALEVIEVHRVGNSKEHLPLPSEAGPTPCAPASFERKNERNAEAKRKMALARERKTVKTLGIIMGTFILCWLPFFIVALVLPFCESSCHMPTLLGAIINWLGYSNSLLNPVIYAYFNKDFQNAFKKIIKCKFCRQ
Protocol: as §1, §2, §3, §4, §5

dopamine D3 = dopamine D3 (Homo sapiens, UniProt P35462); experiment: Primary radioligand binding assay (NIMH PDSP); conditions: primary radiobinding assay, N-methylspiperone; also: test concentration or dose not given here
5-HT7 = 5-HT7 (Homo sapiens, UniProt P34969); experiment: Secondary radioligand binding assay (Ki)
Protocol: as §1, §2, §3, §4, §5

α1A (Alpha1A) = target: T6, α1A (Alpha1A) (Homo sapiens, UniProt P35348); experiment: Secondary radioligand binding assay (Ki)
T6 sequence (P35348 1-466): T4 sequence (P35348 1-466)
Protocol: as §3, §4, §5
Adrenergic Receptors: α1A, α1B, α2A, α2B, α2C, β1, β2, β3
Membrane Fraction Source: Transiently or stably transfected cell lines (e.g. HEK293, COS, CHO, NIH3T3)
The method is carried out in the manner described for the serotonin receptor assay above, except where described below. Eleven dilutions (5× assay concentration) of the test and reference (see Table 20) compounds are prepared in the appropriate buffer by serial dilution, as previously described. Radioligand is diluted to five times the assay concentration (see Table 21) in the appropriate buffer.
The 250 μl reactions are incubated at room temperature and shielded from light (to prevent photolysis of light-sensitive ligands) for 1 hour (for α1 receptors, 40 min for α2 receptors, and 1.5 hours for β receptors), then harvested by rapid filtration onto Whatman GF/B glass fiber filters pre-soaked with 0.3% polyethyleneimine using a 96-well Brandel harverster. Four rapid 500-μl washes are performed with chilled distilled water (for α1 and β receptors) or 0.1% polyethyleneimine (for α2 receptors) to reduce non-specific binding. Filters are placed in 6 ml scintillation tubes and allowed to dry overnight and the samples are treated to obtain data as described above.

dopamine D4 [2] = target: T7, dopamine D4 (Homo sapiens, UniProt P21917); experiment: Primary radioligand binding assay (NIMH PDSP); conditions: primary radiobinding assay, N-methylspiperone
T7 sequence (P21917 1-419): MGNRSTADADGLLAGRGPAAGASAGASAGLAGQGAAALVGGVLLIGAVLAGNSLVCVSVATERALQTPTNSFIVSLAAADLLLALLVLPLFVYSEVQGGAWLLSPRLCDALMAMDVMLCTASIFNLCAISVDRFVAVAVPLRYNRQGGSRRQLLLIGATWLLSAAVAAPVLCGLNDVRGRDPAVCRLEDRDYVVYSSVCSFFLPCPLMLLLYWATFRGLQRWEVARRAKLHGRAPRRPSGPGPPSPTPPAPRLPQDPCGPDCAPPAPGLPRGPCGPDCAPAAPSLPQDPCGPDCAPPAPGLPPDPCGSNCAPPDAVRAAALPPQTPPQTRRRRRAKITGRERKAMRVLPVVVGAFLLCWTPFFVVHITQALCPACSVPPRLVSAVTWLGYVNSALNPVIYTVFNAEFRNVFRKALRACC

dopamine D2 [3] = target: T2, dopamine D2; conditions: read-out: dopamine D2 Ki (literature); previously assayed analogue; cited from earlier work
Target sequence in this assay (P14416 whole entry): as the sequence (P14416 whole entry, species assumed) above

dopamine D4 [4] = target: T7, dopamine D4; conditions: previously reported analogue; read-out: dopamine D4 Ki (literature); cited from earlier work
For D4 (% inh) in this document: test concentration or dose not given here.

Chain of dopamine D5 (P21918 whole entry): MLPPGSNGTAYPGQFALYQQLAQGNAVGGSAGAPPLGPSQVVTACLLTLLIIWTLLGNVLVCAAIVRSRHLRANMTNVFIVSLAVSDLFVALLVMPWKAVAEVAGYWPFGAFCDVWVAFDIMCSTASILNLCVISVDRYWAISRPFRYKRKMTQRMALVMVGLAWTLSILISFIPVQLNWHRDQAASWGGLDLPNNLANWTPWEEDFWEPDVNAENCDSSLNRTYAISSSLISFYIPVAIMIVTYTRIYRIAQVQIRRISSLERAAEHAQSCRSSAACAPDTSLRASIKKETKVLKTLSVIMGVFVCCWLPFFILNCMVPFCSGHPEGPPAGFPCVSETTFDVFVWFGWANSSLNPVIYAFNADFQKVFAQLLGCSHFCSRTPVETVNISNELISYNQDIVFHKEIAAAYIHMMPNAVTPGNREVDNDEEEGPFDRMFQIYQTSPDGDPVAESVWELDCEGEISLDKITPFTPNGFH
Chain of 5-HT2B (P41595 whole entry, species assumed): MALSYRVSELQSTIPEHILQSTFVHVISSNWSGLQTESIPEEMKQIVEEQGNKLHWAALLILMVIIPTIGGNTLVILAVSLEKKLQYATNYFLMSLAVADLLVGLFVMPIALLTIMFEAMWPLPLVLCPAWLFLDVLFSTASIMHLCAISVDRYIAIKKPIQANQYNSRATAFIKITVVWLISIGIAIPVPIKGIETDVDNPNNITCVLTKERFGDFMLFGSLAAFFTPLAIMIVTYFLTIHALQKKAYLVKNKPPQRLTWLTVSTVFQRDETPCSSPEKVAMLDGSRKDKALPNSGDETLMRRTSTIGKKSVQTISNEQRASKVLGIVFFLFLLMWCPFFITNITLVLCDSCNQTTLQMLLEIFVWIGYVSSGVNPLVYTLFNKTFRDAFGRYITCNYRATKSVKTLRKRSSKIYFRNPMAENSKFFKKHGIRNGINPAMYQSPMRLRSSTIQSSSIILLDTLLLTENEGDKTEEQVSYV
Chain of dopamine D1 (P21728 whole entry): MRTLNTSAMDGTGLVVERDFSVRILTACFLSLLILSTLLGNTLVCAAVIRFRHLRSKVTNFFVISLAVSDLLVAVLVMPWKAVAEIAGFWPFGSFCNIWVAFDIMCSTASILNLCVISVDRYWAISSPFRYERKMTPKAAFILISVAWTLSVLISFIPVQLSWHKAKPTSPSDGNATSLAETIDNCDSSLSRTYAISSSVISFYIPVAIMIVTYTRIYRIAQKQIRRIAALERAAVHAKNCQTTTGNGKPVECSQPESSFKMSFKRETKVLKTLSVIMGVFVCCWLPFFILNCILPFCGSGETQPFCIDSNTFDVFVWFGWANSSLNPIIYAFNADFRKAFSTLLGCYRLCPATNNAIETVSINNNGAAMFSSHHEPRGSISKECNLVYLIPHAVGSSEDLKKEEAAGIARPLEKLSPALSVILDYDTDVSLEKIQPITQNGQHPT
Chain of 5-HT7 (P34969 whole entry, species assumed): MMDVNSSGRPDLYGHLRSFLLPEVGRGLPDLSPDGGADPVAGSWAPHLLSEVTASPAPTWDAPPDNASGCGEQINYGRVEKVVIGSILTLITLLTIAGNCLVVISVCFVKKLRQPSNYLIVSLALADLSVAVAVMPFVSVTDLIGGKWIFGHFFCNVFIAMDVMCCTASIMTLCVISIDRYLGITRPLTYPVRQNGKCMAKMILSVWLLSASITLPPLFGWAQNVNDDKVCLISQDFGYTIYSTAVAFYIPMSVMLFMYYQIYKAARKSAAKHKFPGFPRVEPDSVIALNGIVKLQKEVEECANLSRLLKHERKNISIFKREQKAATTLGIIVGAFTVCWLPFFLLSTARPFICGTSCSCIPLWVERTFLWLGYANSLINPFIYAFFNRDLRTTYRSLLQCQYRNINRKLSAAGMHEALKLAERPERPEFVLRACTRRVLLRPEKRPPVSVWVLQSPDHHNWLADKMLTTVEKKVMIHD
Chain of dopamine D3 (P35462 whole entry): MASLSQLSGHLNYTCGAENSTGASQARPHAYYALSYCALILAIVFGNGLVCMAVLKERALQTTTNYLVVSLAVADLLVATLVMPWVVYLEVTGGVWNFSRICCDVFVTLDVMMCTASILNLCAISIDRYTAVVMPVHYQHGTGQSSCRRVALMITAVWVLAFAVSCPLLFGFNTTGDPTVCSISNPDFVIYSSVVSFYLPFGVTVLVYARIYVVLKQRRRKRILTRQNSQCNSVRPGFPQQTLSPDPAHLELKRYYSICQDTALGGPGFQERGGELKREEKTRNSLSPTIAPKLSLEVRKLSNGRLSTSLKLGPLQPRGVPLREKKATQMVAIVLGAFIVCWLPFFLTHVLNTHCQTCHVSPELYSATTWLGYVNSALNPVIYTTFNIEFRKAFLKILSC

SMILES | D1 (% inh) (dopamine D1) | Alpha1D (% inh) (Alpha1D) | D2 (% inh) (dopamine D2 [1]) | Alpha1B (% inh) (Alpha1B) | D5 (% inh) (dopamine D5) | Alpha1A (% inh) (Alpha1A) | pKi (5-HT2B) | pKi (5HT1a) | D3 (% inh) (dopamine D3) | pKi (5-HT7) | pKi (α1A (Alpha1A)) | D4 (% inh) (dopamine D4 [2]) | pKi (dopamine D2 [3]) | pKi (dopamine D4 [4])
CC1Cc2ccccc2N1C(=O)CN1CCN(c2ccccc2)CC1 (stereo not drawn) [STT-00185641] | −1 % inh | 31.1 % inh | 2 % inh | −19.8 % inh | 18 % inh | 64.8 % inh | 5.84 | 5.07 | 51 % inh | 5.55 | 5.70 |  |  | 
COc1cc2c(cc1OC)C(=O)C(CC1CCN(Cc3ccccc3)CC1)C2 (stereo not drawn) [donepezil, reference compound] |  |  | 18.6 % inh |  |  |  |  |  |  |  |  | 89.2 % inh |  | 
O=C1c2ccccc2CN1CCCCN1CCN(c2ccccc2)CC1 [2-(4-(4-Phenyl-1-piperazinyl)butyl)-1-isoindolinone] |  |  |  |  |  |  |  |  |  |  |  |  | 6.50 | 6.87
